Results from patent US8323971B2, “Differentiation of pluripotent cells into primary germ layer progenitors” (Cambridge Enterprise Limited, priority 2006, dated 2012).

System: H9 hESCs
Assay: Screening of culture conditions by immunostaining for Oct4, Sox2, Brachyury, Sox17
Type: cell-based, human
Design: key to Pluripotency Oct4, fraction of expressing cells / Neuro Sox2, fraction of expressing cells / Meso Brachyury, fraction of expressing cells / Endo Sox17, fraction of expressing cells: 0 for absence of expression; VL for expressing cells <1%; L for expressing cells <5%; H for expressing cells >10%; VH for expressing cells >50%
Settings: Conditions CDM (CDM-BSA), 7 days or more
Method: Table 2 and Table 3 show the screening of culture conditions for inducing mesoendoderm differentiation into CDM. H9 hESCs were grown for 7 days or more in CDM-BSA or CDM-PVA supplemented with different growth factors (Activin, BMP4, FGF2) or inhibitors (SU5402 for FGF, SB431542 for Activin/Nodal/TGFβ, BIO for βCatenin). Then, immunostaining analysis were used to determine the fractions of cells expressing the pluripotent marker Oct-4, neuroectoderm marker Sox2, the mesoderm marker Brachyury, and the endoderm marker Sox17. The quantities of expressing cells were divided into five arbitrary categories. 0 for absence of expression, VL for expressing cells <1%, L for expressing cells <5%, H for expressing cells >10%, VH for expressing cells >50%. IN red are indicated the conditions allowing the generation of mesendoderm cells expressing Brachyury or Sox17.
HESCs or differentiated progenitors were fixed for 20 minutes at 4° C. in 4% paraformaldehyde (PFA) and then washed three times in PBS. Cells were incubated for 20 minutes at room temperature in PBS containing 10% goat serum (Serotec) and subsequently incubated over night at 4° C. with primary antibody diluted in 1% goat serum in PBS as follows: SSEA-3 (1:100, Santa Cruz), SSAE-1 (1:25), Tra-1-60 (1:100, Santa CruZ), Oct-4 (1:100, Abcam ab18976 or SantaCruz), Sox2 (1:100, Abcam ab15830), Alkaline Phophatase (1:50, Abcam ab17989), Brachyury (1:100, Abcam ab20680 or RandD systems), Sox17 (RandD systems), FoxA2 (1:50, Abcam ab5074), GATA4 (1:250, Santa CruZ), GATA6 (1:200, Abcam ab22600 or Santa Cruz), Vent-2 (1:100, Abcam ab20913), Goosecoid (1:25, Abcam ab21059), Wnt3A (1:100, Abcam ab19925), CXCR4 (1:100, RanD Systems or Pharmingen). Nestin (1:200, Abcam ab5968), NCAM (1:100, Abcam ab8077), GFAP (ZZ), Neurofilament (ZZ), βIII Tubulin (ZZ), Glutamate (ZZ), N-Cadherin (1:100, Abcam ab18203 or ZZ). Cells were then washed three times in PBS and incubated with fluorescein-Isothiocyanate-conjugated anti-mouse IgG or IgM (Sigma 1:200 in 1% goat serum in PBS) or rat IgM (Jackson laboratory 1:300 in goat serum in PBS) or rabbit IgG (Jackson laboratory 1:200 in donkey serum in PBS) for two hours at room temperature. Unbound secondary antibody was removed by 3 washes in PBS. Hoechst 33258 was added to the first wash (Sigma 1:10000).
We then developed a method for inducing differentiation of hESCs into the three primary germ layers. Culture conditions inductive for mesoderm, endoderm and neuroectoderm were screened using an approach based on immunostaining analyses for the expression of proteins specifically expressed by pluripotent cells (Oct-4), neuroectoderm progenitors (Sox2 in absence of Oct4), endoderm progenitors (Sox17) and mesoderm progenitors (Brachyury). In summary, hESCs grown in CDM (CDM-BSA or hu-CDM) were plated on fibronectin in CDM-BSA/AF or CDM-PVA/AF. Then cocktails of growth factors (BMP4, FGF2, Activin) or chemical inhibitors (SU5402, SB431542) were added at different times and for different periods. After 7 to 10 days treatment, cells were fixed and then the expression of Oct-4/Sox2, Sox17 and Brachyury was analysed using immunostaining. The effect of three growth factors on the differentiation of hESCs into the primary germ layers was systematically analysed in our screen. We also studied the function of FGF and Activin signalling pathways in the maintenance of the pluripotent state by analysing the effect of the SU5402, a chemical inhibitor of FGF receptors, and the SB431542, a chemical inhibitor of Activin/TGFβ receptors.

BMP4: Bone Morphogenetic Protein 4 growth factor
0: Endo Sox17, fraction of expressing cells | Meso Brachyury, fraction of expressing cells | Neuro Sox2, fraction of expressing cells | Pluripotency Oct4, fraction of expressing cells
